A value given as a limit tells only on which side of the number the result lay.

In this data set the test system is Vero E6 cells. Conditions: 72 h.

As to `CC[C@H](C)[C@H](NC(=O)[C@H](CCC(N)=O)NC(=O)[C@H](CC(C)C)NC(=O)[C@H](C)NC(=O)[C@H](C)NC(=O)CNC(=O)[C@H](C)NC(=O)CNC(=O)[C@H](Cc1ccccc1)NC(C)=O)C(=O)N1CCC[C@H]1C(=O)N[C@@H](Cc1ccccc1)C(=O)N[C@@H](C)C(=O)N[C@@H](C)C(=O)N[C@@H](CCC(N)=O)C(=O)N[C@@H](CCSC)C(=O)N[C@@H](C)C(=O)N[C@@H](Cc1ccc(O)cc1)C(=O)N[C@@H](CCCNC(=N)N)C(=O)N[C@@H](Cc1ccccc1)C(N)=O` [PN19M→A900], the “CC50 (mean ± SD)” value was more than 100 µM. Under `CC[C@H](C)[C@H](NC(=O)[C@H](CCC(N)=O)NC(=O)[C@H](CC(C)C)NC(=O)[C@H](C)NC(=O)[C@H](C)NC(=O)CNC(=O)[C@H](C)NC(=O)CNC(=O)[C@H](Cc1ccccc1)NC(C)=O)C(=O)N1CCC[C@H]1C(=O)N[C@@H](Cc1ccccc1)C(=O)N[C@@H](C)C(=O)N[C@@H](CCSC)C(=O)N[C@@H](C)C(=O)N[C@@H](CCSC)C(=O)N[C@@H](C)C(=O)N[C@@H](Cc1ccc(O)cc1)C(=O)N[C@@H](CCCNC(=N)N)C(=O)N[C@@H](Cc1ccccc1)C(N)=O` [PN19Q→A901] stands more than 100 µM; under `CSCC[C@H](NC(=O)[C@H](C)NC(=O)[C@H](Cc1ccccc1)NC(C)=O)C(=O)N[C@@H](CCC(N)=O)C(=O)N[C@@H](CCSC)C(=O)N[C@@H](C)C(=O)N[C@@H](Cc1ccc(O)cc1)C(=O)N[C@@H](CCCNC(=N)N)C(=O)N[C@@H](Cc1ccccc1)C(N)=O` [PN9], more than 100 µM. Under `CC[C@H](C)[C@H](NC(=O)[C@H](CCC(N)=O)NC(=O)[C@H](CC(C)C)NC(=O)[C@H](C)NC(=O)[C@H](C)NC(=O)CNC(=O)[C@H](C)NC(=O)CNC(=O)[C@H](Cc1ccccc1)NC(=O)[C@@H](NC(=O)[C@H](Cc1c[nH]c2ccccc12)NC(=O)CNC(=O)[C@H](CO)NC(C)=O)[C@@H](C)O)C(=O)N1CCC[C@H]1C(=O)N[C@@H](Cc1ccccc1)C(=O)N[C@@H](C)C(=O)N[C@@H](CCSC)C(=O)N[C@@H](CCC(N)=O)C(=O)N[C@@H](CCSC)C(N)=O` [PC19] stands more than 100 µM; under `CC[C@H](C)[C@H](NC(=O)[C@H](CCC(N)=O)NC(=O)[C@H](CC(C)C)NC(=O)[C@H](C)NC(=O)[C@H](C)NC(=O)CNC(=O)[C@H](C)NC(=O)CNC(=O)[C@H](Cc1ccccc1)NC(=O)[C@@H](NC(=O)[C@H](Cc1c[nH]c2ccccc12)NC(C)=O)[C@@H](C)O)C(=O)N1CCC[C@H]1C(=O)N[C@@H](Cc1ccccc1)C(=O)N[C@@H](C)C(=O)N[C@@H](CCSC)C(=O)N[C@@H](CCC(N)=O)C(=O)N[C@@H](CCSC)C(=O)N[C@@H](C)C(=O)N[C@@H](Cc1ccc(O)cc1)C(N)=O` [PNC19], more than 100 µM. `CC[C@H](C)[C@H](NC(=O)[C@H](C)NC(=O)[C@H](CC(C)C)NC(=O)[C@H](C)NC(=O)[C@H](C)NC(=O)CNC(=O)[C@H](C)NC(=O)CNC(=O)[C@H](Cc1ccccc1)NC(C)=O)C(=O)N1CCC[C@H]1C(=O)N[C@@H](Cc1ccccc1)C(=O)N[C@@H](C)C(=O)N[C@@H](CCSC)C(=O)N[C@@H](CCC(N)=O)C(=O)N[C@@H](CCSC)C(=O)N[C@@H](C)C(=O)N[C@@H](Cc1ccc(O)cc1)C(=O)N[C@@H](CCCNC(=N)N)C(=O)N[C@@H](Cc1ccccc1)C(N)=O` [PN19Q→A895]: the “CC50 (mean ± SD)” value is more than 100 µM. The same measure for `CC[C@H](C)[C@H](NC(=O)[C@H](CCC(N)=O)NC(=O)[C@H](CC(C)C)NC(=O)[C@H](C)NC(=O)[C@H](C)NC(=O)CNC(=O)[C@H](C)NC(=O)CNC(=O)[C@H](Cc1ccccc1)NC(C)=O)C(=O)N1CCC[C@H]1C(=O)N[C@@H](Cc1ccccc1)C(=O)N[C@@H](C)C(=O)N[C@@H](CCSC)C(=O)N[C@@H](CCC(N)=O)C(=O)N[C@@H](CCSC)C(=O)N[C@@H](C)C(=O)N[C@@H](Cc1ccc(O)cc1)C(=O)N[C@@H](C)C(=O)N[C@@H](Cc1ccccc1)C(N)=O` [PN19R→A905]: more than 100 µM; for `CSCC[C@H](NC(=O)[C@H](C)NC(=O)[C@H](Cc1ccccc1)NC(=O)[C@@H]1CCCN1C(=O)[C@H](C)NC(=O)[C@H](CCC(N)=O)NC(=O)[C@H](CC(C)C)NC(=O)[C@H](C)NC(=O)[C@H](C)NC(=O)CNC(=O)[C@H](C)NC(=O)CNC(=O)[C@H](Cc1ccccc1)NC(C)=O)C(=O)N[C@@H](CCC(N)=O)C(=O)N[C@@H](CCSC)C(=O)N[C@@H](C)C(=O)N[C@@H](Cc1ccc(O)cc1)C(=O)N[C@@H](CCCNC(=N)N)C(=O)N[C@@H](Cc1ccccc1)C(N)=O` [PN19I→A896]: more than 100 µM. `CC[C@H](C)[C@H](NC(=O)[C@H](CCC(N)=O)NC(=O)[C@H](CC(C)C)NC(=O)[C@H](C)NC(=O)[C@H](C)NC(=O)CNC(=O)[C@H](C)NC(=O)CNC(=O)[C@H](Cc1ccccc1)NC(C)=O)C(=O)N[C@@H](C)C(=O)N[C@@H](Cc1ccccc1)C(=O)N[C@@H](C)C(=O)N[C@@H](CCSC)C(=O)N[C@@H](CCC(N)=O)C(=O)N[C@@H](CCSC)C(=O)N[C@@H](C)C(=O)N[C@@H](Cc1ccc(O)cc1)C(=O)N[C@@H](CCCNC(=N)N)C(=O)N[C@@H](Cc1ccccc1)C(N)=O` [PN19P→A897]: the “CC50 (mean ± SD)” value is more than 100 µM.

With `CC[C@H](C)[C@H](NC(=O)[C@H](CCC(N)=O)NC(=O)[C@H](C)NC(=O)[C@H](C)NC(=O)[C@H](C)NC(=O)CNC(=O)[C@H](C)NC(=O)CNC(=O)[C@H](Cc1ccccc1)NC(C)=O)C(=O)N1CCC[C@H]1C(=O)N[C@@H](Cc1ccccc1)C(=O)N[C@@H](C)C(=O)N[C@@H](CCSC)C(=O)N[C@@H](CCC(N)=O)C(=O)N[C@@H](CCSC)C(=O)N[C@@H](C)C(=O)N[C@@H](Cc1ccc(O)cc1)C(=O)N[C@@H](CCCNC(=N)N)C(=O)N[C@@H](Cc1ccccc1)C(N)=O` [PN19L→A894], the “CC50 (mean ± SD)” value is more than 100 µM.

For the compound `CC[C@H](C)[C@H](NC(=O)[C@H](CCC(N)=O)NC(=O)[C@H](CC(C)C)NC(=O)[C@H](C)NC(=O)[C@H](C)NC(=O)CNC(=O)[C@H](C)NC(=O)CNC(=O)[C@H](Cc1ccccc1)NC(C)=O)C(=O)N1CCC[C@H]1C(=O)N[C@@H](Cc1ccccc1)C(=O)N[C@@H](C)C(=O)N[C@@H](CCSC)C(=O)N[C@@H](CCC(N)=O)C(=O)N[C@@H](C)C(=O)N[C@@H](C)C(=O)N[C@@H](Cc1ccc(O)cc1)C(=O)N[C@@H](CCCNC(=N)N)C(=O)N[C@@H](Cc1ccccc1)C(N)=O` [PN19M→A902], the “CC50 (mean ± SD)” value was more than 100 µM. Under `CC[C@H](C)[C@H](NC(=O)[C@H](CCC(N)=O)NC(=O)[C@H](CC(C)C)NC(C)=O)C(=O)N1CCC[C@H]1C(=O)N[C@@H](Cc1ccccc1)C(=O)N[C@@H](C)C(=O)N[C@@H](CCSC)C(=O)N[C@@H](CCC(N)=O)C(=O)N[C@@H](CCSC)C(=O)N[C@@H](C)C(=O)N[C@@H](Cc1ccc(O)cc1)C(=O)N[C@@H](CCCNC(=N)N)C(=O)N[C@@H](Cc1ccccc1)C(N)=O` [PN13] stands more than 100 µM; under `CC[C@H](C)[C@H](NC(=O)[C@H](CCC(N)=O)NC(=O)[C@H](CC(C)C)NC(=O)[C@H](C)NC(=O)[C@H](C)NC(=O)CNC(=O)[C@H](C)NC(C)=O)C(=O)N1CCC[C@H]1C(=O)N[C@@H](Cc1ccccc1)C(=O)N[C@@H](C)C(=O)N[C@@H](CCSC)C(=O)N[C@@H](CCC(N)=O)C(=O)N[C@@H](CCSC)C(=O)N[C@@H](C)C(=O)N[C@@H](Cc1ccc(O)cc1)C(=O)N[C@@H](CCCNC(=N)N)C(=O)N[C@@H](Cc1ccccc1)C(N)=O` [PN17], more than 100 µM.

The values above are taken from article PMC10384657 (Virus Research, 2023).
